Target: Stromelysin-1 (Homo sapiens, UniProt P08254)
Assay: Inhibition of matrix metalloprotease-3

Sequence of Stromelysin-1 (P08254 whole entry): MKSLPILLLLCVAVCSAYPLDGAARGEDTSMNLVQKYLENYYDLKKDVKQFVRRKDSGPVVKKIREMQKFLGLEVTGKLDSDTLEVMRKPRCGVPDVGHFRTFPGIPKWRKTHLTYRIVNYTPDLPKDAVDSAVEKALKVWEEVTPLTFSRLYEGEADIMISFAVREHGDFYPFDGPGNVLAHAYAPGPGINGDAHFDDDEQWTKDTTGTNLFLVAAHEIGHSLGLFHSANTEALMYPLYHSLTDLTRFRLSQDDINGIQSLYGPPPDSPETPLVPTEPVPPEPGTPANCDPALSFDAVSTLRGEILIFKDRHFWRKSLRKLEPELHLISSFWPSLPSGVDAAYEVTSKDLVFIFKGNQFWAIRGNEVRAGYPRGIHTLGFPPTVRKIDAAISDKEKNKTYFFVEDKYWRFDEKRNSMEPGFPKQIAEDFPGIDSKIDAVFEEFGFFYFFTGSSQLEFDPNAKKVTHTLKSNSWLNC

Compound	IC50 [nM]
CCCCCCC(N[C@@H](CCc1ccccc1)C(=O)N[C@@H](CCCN=C(N)N)C(=O)N[C@@H](CCC(N)=O)C(=O)OC)C(=O)O (stereo not given in full)	900
CCCCCCC(N[C@@H](CCc1ccccc1)C(=O)N[C@@H](CCCN=C(N)N)C(=O)N[C@@H](CC(C)C)C(=O)OC)C(=O)O (stereo not given in full)	400
CCCCCCC(N[C@@H](CCc1ccccc1)C(=O)N[C@@H](CCCN=C(N)N)C(=O)N[C@@H](CCCC)C(=O)OC)C(=O)O (stereo not given in full)	900

More lines, now with the values ahead:

IC50 [nM]	Compound
800	CCCCCCC(N[C@@H](CCc1ccccc1)C(=O)N[C@@H](CCCN=C(N)N)C(=O)N[C@@H](CCc1ccccc1)C(=O)OC)C(=O)O (stereo not given in full)
900	CCCCCCC(N[C@@H](CCc1ccccc1)C(=O)N[C@@H](CCCN=C(N)N)C(=O)N[C@@H](Cc1cc2ccccc2[nH]1)C(=O)OC)C(=O)O (stereo not given in full)
